Reference: PubChem BioAssay (NCI)
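Five concentrations, 48 hours, 96-well plates. GI50: concentration for 50% inhibition of growth. TGI: concentration producing complete growth inhibition.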

Assays:
Assay in all cases: growth of human tumour cells (NCI), 48 h
[1] = system: SNB-75 CNS
[2] = system: SK-OV-3 ovarian
[3] = system: M14 melanoma
[4] = system: ACHN renal
[5] = system: UACC-62 melanoma
[6] = system: SR leukemia
[7] = system: CAKI-1 renal
[8] = system: RPMI-8226 leukemia
[9] = system: TK-10 renal
[10] = system: OVCAR-4 ovarian

| SMILES | GI50 [1] | TGI [1] | GI50 [2] | TGI [2] | GI50 [3] | TGI [3] | GI50 [4] | TGI [4] | GI50 [5] | TGI [5] | GI50 [6] | TGI [6] | GI50 [7] | TGI [7] | GI50 [8] | TGI [8] | GI50 [9] | TGI [9] | TGI [10] | GI50 [10] |
| --- | --- | --- | --- | --- | --- | --- | --- | --- | --- | --- | --- | --- | --- | --- | --- | --- | --- | --- | --- | --- |
| Nc1c(S(=O)(=O)O)cc2c(c1Cl)C(=O)c1ccccc1C2=O | > 100 µM | > 100 µM | > 100 µM | > 100 µM | > 100 µM | > 100 µM | > 100 µM | > 100 µM | > 100 µM | > 100 µM | > 100 µM | > 100 µM | > 100 µM | > 100 µM | > 100 µM | > 100 µM | > 100 µM | > 100 µM | – | – |
| NCCCSCC(=O)O | – | > 100 µM | – | > 100 µM | – | – | – | > 100 µM | – | > 100 µM | – | – | – | > 100 µM | – | > 100 µM | – | > 100 µM | > 100 µM | – |
| COC(=O)C1=CCS(=O)(=O)C1 | – | > 100 µM | – | > 100 µM | – | > 100 µM | – | > 100 µM | – | > 100 µM | – | – | – | > 100 µM | – | > 100 µM | – | > 100 µM | > 100 µM | – |
| O=C1C2Cc3ccccc3CN2C(=O)N1CCN1CCOCC1 (stereo not given) | – | – | – | – | – | > 100 µM | – | > 100 µM | – | > 100 µM | – | > 100 µM | – | > 100 µM | – | > 100 µM | – | > 100 µM | > 100 µM | – |
| Nc1c(-c2ccc(-c3c(N)[n+]([O-])c4ccccc4[n+]3[O-])cc2)[n+]([O-])c2ccccc2[n+]1[O-] | – | 21.9 µM | – | 52.7 µM | – | 35.1 µM | – | 31.1 µM | – | 24.3 µM | – | – | – | 20.3 µM | – | > 100 µM | – | 32.1 µM | 35.9 µM | – |
| COc1cc(Nc2nccc(-c3cnn4ncccc34)n2)cc(OC)c1 | 0.0754 µM | 0.308 µM | 0.418 µM | 9.84 µM | 0.0891 µM | 0.838 µM | 0.0565 µM | 4.16 µM | 0.0532 µM | 0.223 µM | – | – | 0.0703 µM | 4.02 µM | 0.0862 µM | 0.388 µM | 0.0982 µM | 0.406 µM | 1.35 µM | 0.268 µM |
| Cc1ccc(Sc2cc([N+](=O)[O-])cc(Sc3ccc(C)cc3)c2Sc2ccc(C)cc2)cc1 | – | > 100 µM | – | – | – | > 100 µM | – | > 100 µM | – | > 100 µM | – | – | – | > 100 µM | – | > 100 µM | – | > 100 µM | – | – |
| O=C1CCC(=O)C12CCc1ccccc12 | – | > 100 µM | – | > 100 µM | – | > 100 µM | – | > 100 µM | – | > 100 µM | – | – | – | > 100 µM | – | – | – | > 100 µM | > 100 µM | – |
| Cc1cccc(C)c1NC(=O)/C(CC(=O)CC(c1ccccc1)c1c(O)c2ccccc2oc1=O)=N/O (stereo not given) | – | > 100 µM | – | > 100 µM | – | > 100 µM | – | > 100 µM | – | > 100 µM | – | – | – | > 100 µM | – | – | – | > 100 µM | > 100 µM | – |
| CC(=O)Oc1cc(OC(C)=O)c(OC(C)=O)c2c1CC1C(=O)C3(CCc4ccccc43)C(=O)C1C2 (stereo not given) | – | 16.7 µM | – | 58.8 µM | – | > 100 µM | – | 26.2 µM | – | 31.3 µM | – | – | – | 38.3 µM | – | 13.1 µM | – | 31.7 µM | 24.1 µM | – |
| O=C1OC(=O)C2C1C1(c3ccccc3)OC2(c2ccccc2)c2c(Br)c(Br)c(Br)c(Br)c21 (stereo not given) | – | > 100 µM | – | 74.9 µM | – | > 100 µM | – | – | – | > 100 µM | – | – | – | > 100 µM | – | > 100 µM | – | > 100 µM | > 100 µM | – |
